Source: paper PMC2935964, “Selective delivery of 2-hydroxy APA to Trypanosoma brucei using the melamine motif” (Bioorganic & Medicinal Chemistry Letters, 2010)
Read-outs that look alike come from different tables or passages of the source.

Legend:
[1] = target: T. brucei ODC (Trypanosoma brucei brucei, UniProt P07805); experiment: Inhibition of T. brucei ODC (previously described assay); format: biochemical
[2] = system: T. brucei brucei wild type; experiment: In vitro activity against T. brucei brucei wild type (P2 transporter proficient); format: cell-based, Trypanosoma brucei brucei; conditions: for EC50: Trypanosoma brucei, read-out: T. brucei brucei EC50 Wild type
Procedure: (§1) Compounds were tested against two T. brucei lines in vitro. The T. brucei brucei wild type that is proficient in the P2 transporter and a TbAT1 knockout line lacking the P2 transporter. This TbAT1 knockout line has been described previously.[27]

[3] = system: rat liver ODC; parameters: method as in PMID 1573631; conditions: previously reported; read-out: inhibition of rat liver ODC; cited from earlier work
[4] = system: T. brucei brucei TbAT1 KO; experiment: In vitro activity against TbAT1 knockout line lacking the P2 transporter; format: cell-based, Trypanosoma brucei brucei; conditions: for EC50: Trypanosoma brucei, read-out: T. brucei brucei EC50 TbAT1 KO; for Resistance factor (EC50 KO/EC50 w.t.): ratio TbAT1 KO vs wild type
Procedure: as §1

[5] = wild type, P2 proficient, NA = no activity at 100 μM

Sequence of T. brucei ODC (P07805 whole entry): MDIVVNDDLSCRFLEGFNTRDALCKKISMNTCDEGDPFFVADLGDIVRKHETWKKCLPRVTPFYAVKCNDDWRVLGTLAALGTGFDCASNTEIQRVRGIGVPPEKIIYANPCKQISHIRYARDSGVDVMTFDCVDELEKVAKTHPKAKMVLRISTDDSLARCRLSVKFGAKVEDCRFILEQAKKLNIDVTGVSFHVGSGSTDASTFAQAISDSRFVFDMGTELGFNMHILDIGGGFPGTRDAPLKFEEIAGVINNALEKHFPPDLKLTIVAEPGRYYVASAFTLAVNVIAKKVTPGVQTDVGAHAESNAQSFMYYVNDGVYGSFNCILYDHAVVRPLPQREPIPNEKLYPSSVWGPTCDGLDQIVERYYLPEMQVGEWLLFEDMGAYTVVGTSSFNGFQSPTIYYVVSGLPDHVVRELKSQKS

Row | melting point | Structure (SMILES) | IC50 [1] | EC50 [2] | T. brucei brucei EC50 Wild type [2, 5] | IC50 [3] | EC50 [4] | Resistance factor (EC50 KO/EC50 w.t.) [4] | EC50 [2, 5]
1 |  | Cl.NCCCON [Compound 3, 3-(aminooxy)propanamine, reference compound] | 0.022 ± 0.007 µM | > 100 µM | inactive | 0.035 µM |  |  | 
2 |  | NCC(O)CON (centres unmarked) [Compound 7, 2-hydroxy APA] | 0.048 ± 0.009 µM | > 100 µM |  | 0.039 µM |  |  | 
3 |  | CC(C)(C)OC(=O)NCC(CONC(=O)OC(C)(C)C)OC(=O)CCNc1nc(N)nc(N)n1 (centres unmarked) [Compound 10b] |  | 77 µM |  |  | 40 µM | 0.5 | 
4 | 150 to 170 °C | Cl.Cl.NCC(CON)OC(=O)CNc1nc(N)nc(N)n1 (centres unmarked) [Compound 11a] |  |  |  |  |  |  | > 100 µM
5 | 150 to 170 °C | Cl.Cl.NCC(CON)OC(=O)CCNc1nc(N)nc(N)n1 (centres unmarked) [Compound 11b] |  |  |  |  |  |  | > 100 µM
6 |  | Cl.Cl.NCC(CON)OC(=O)CCCNc1nc(N)nc(N)n1 (centres unmarked) [Compound 11d] |  |  |  |  | 288 µM | 2.5 | 113 µM

Row | Structure (SMILES) | melting point | IC50 [1] | EC50 [2] | T. brucei brucei EC50 Wild type [2, 5] | IC50 [3] | EC50 [4] | Resistance factor (EC50 KO/EC50 w.t.) [4] | EC50 [2, 5]
7 | CC(Nc1nc(N)nc(N)n1)C(=O)OC(CN)CON.Cl.Cl (centres unmarked) [Compound 11c] | 160 to 180 °C |  |  |  |  |  | >3 | 29 µM
